Target: T1, human orexin type 2 receptor (Homo sapiens, UniProt O43614)
T1 construct: expressed in transfected cells
T1 sequence (O43614 1-444): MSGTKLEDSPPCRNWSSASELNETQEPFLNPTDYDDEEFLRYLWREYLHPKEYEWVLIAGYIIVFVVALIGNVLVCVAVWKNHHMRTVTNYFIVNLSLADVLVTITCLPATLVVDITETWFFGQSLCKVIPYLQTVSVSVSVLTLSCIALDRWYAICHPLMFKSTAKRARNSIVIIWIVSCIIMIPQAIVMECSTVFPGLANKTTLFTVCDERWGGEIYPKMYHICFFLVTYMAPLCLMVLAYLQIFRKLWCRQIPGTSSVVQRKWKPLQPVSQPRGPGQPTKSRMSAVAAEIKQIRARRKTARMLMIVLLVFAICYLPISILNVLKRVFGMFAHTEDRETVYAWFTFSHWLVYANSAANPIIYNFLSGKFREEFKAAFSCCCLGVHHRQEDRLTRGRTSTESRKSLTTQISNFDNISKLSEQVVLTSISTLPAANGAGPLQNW
Assay: Measurement of orexin type 2 receptor agonist activity (calcium fluorescence, Fluo-4 AM, FDSS)
Type: cell-based
Conditions: test compound 3 μM; CHO cells expressing human OX2 receptor; DMSO = 0%, orexin A (human) = 100%
In short: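 CHO-K1 cells stably expressing human OX2R were loaded with Fluo-4 AM (30 min 37 °C, 30 min RT) in HEPES-buffered HBSS with 0.1% BSA and probenecid. Calcium fluorescence was followed on FDSS for 2 min after compound addition; activity normalised to DMSO (0%) and 10 nM orexin A (100%).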

Structure (SMILES) | OX2R agonist activity (3 μM, %)
O=C([C@@H]1C[C@@]1(F)c1ccc(F)cc1-c1c(F)cccc1F)N1C[C@@H](F)[C@H]1CNS(=O)(=O)CF [Example 430, 1-fluoro-N-({(2R,3R)-3-fluoro-1-[(1S,2S)-2-fluoro-2-(2′,5,6′-trifluoro[1,1′-biphenyl]-2-yl)cyclopropane-1-carbonyl]azetidin-2-yl}methyl)methanesulfonamide] | 92%
CS(=O)(=O)N[C@@H]1CN(C(=O)[C@@H]2C[C@H]2c2ccccc2-c2c(F)cccc2F)C[C@H]1F [Example 279, N-{(3R,4R)-1-[(1R,2R)-2-(2′,6′-difluoro[1,1′-biphenyl]-2-yl)cyclopropane-1-carbonyl]-4-fluoropyrrolidin-3-yl}methanesulfonamide] | 87%
CS(=O)(=O)NC1CCCN(C(=O)C2CC2c2ccc(C(F)F)cc2-c2c(F)cccc2F)CC1 (racemic) [Example 229, a mixture of rac-N-[(4R)-1-{(1R,2R)-2-[5-(difluoromethyl)-2′,6′-difluoro[1,1′-biphenyl]-2-yl]cyclopropane-1-carbonyl}azepan-4-yl]methanesulfonamide and rac-N-[(4S)-1-{(1R,2R)-2-[5-(difluoromethyl)-2′,6′-difluoro[1,1′-biphenyl]-2-yl]cyclopropane-1-carbonyl}azepan-4-yl]methanesulfonamide] | 64%
CS(=O)(=O)NC1CCCN(C(=O)C2CC2c2ccccc2-c2ncccc2F)CC1 (mixture of isomers) [Example 256, a mixture of N-[(4S)-1-{(1R,2R)-2-[2-(3-fluoropyridin-2-yl)phenyl]cyclopropane-1-carbonyl}azepan-4-yl]methanesulfonamide and N-[(4S)-1-{(1S,2S)-2-[2-(3-fluoropyridin-2-yl)phenyl]cyclopropane-1-carbonyl}azepan-4-yl]methanesulfonamide] | 52%
CS(=O)(=O)NC1CCCN(C(=O)C2CC2c2ccccc2-c2ccccc2F)CC1 (racemic) [Example 59, a mixture of rac-N-{(4R)-1-[(1R,2R)-2-(2′-fluoro[1,1′-biphenyl]-2-yl)cyclopropane-1-carbonyl]azepan-4-yl}methanesulfonamide and rac-N-{(4S)-1-[(1R,2R)-2-(2′-fluoro[1,1′-biphenyl]-2-yl)cyclopropane-1-carbonyl]azepan-4-yl}methanesulfonamide] | 80%
CS(=O)(=O)NCC1CN(C(=O)C2CC2c2ccccc2-c2c(F)cccc2F)CC1(F)F (racemic) [Example 285, a mixture of rac-N-({(3R)-1-[(1R,2R)-2-(2′,6′-difluoro[1,1′-biphenyl]-2-yl)cyclopropane-1-carbonyl]-4,4-difluoropyrrolidin-3-yl}methyl)methanesulfonamide and rac-N-({(3S)-1-[(1R,2R)-2-(2′,6′-difluoro[1,1′-biphenyl]-2-yl)cyclopropane-1-carbonyl]-4,4-difluoropyrrolidin-3-yl}methyl)methanesulfonamide] | 63%
COCS(=O)(=O)N[C@H]1CCCN(C(=O)C2CC2c2ccccc2-c2c(F)cccc2F)C1 (mixture of isomers) [Example 214, a mixture of N-{(3S)-1-[(1R,2R)-2-(2′,6′-difluoro[1,1′-biphenyl]-2-yl)cyclopropane-1-carbonyl]piperidin-3-yl}-1-methoxymethanesulfonamide and N-{(3S)-1-[(1S,2S)-2-(2′,6′-difluoro[1,1′-biphenyl]-2-yl)cyclopropane-1-carbonyl]piperidin-3-yl}-1-methoxymethanesulfonamide] | 95%
CC1(NS(C)(=O)=O)CCCN(C(=O)[C@@H]2C[C@H]2c2ccccc2-c2c(F)cccc2F)C1 (mixture of isomers) [Example 310, a mixture of N-{(3R)-1-[(1R,2R)-2-(2′,6′-difluoro[1,1′-biphenyl]-2-yl)cyclopropane-1-carbonyl]-3-methylpiperidin-3-yl}methanesulfonamide and N-{(3S)-1-[(1R,2R)-2-(2′,6′-difluoro[1,1′-biphenyl]-2-yl)cyclopropane-1-carbonyl]-3-methylpiperidin-3-yl}methanesulfonamide] | 100%
O=C([C@@H]1C[C@@]1(F)c1ccc(F)cc1-c1c(F)cccc1F)N1C[C@@H](F)[C@H]1CNS(=O)(=O)N1CCC1 [Example 446, N-({(2R,3R)-3-fluoro-1-[(1S,2S)-2-fluoro-2-(2′,5,6′-trifluoro[1,1′-biphenyl]-2-yl)cyclopropane-1-carbonyl]azetidin-2-yl}methyl)azetidine-1-sulfonamide] | 100%
CS(=O)(=O)N[C@H]1CCCN(C(=O)C2CC2c2cccc(F)c2-c2c(F)cccc2F)C1 (mixture of isomers) [Example 193, a mixture of N-{(3S)-1-[(1R,2R)-2-(2′,6,6′-trifluoro[1,1′-biphenyl]-2-yl)cyclopropane-1-carbonyl]piperidin-3-yl}methanesulfonamide and N-{(3S)-1-[(1S,2S)-2-(2′,6,6′-trifluoro[1,1′-biphenyl]-2-yl)cyclopropane-1-carbonyl]piperidin-3-yl}methanesulfonamide] | 98%
CS(=O)(=O)NC1CCN(C(=O)C2CC2c2c(F)cccc2-c2c(F)cccc2F)C1 (racemic) [Example 26, a mixture of rac-N-{(3R)-1-[(1R,2R)-2-(2′,3,6′-trifluoro[1,1′-biphenyl]-2-yl)cyclopropane-1-carbonyl]pyrrolidin-3-yl}methanesulfonamide and rac-N-{(3S)-1-[(1R,2R)-2-(2′,3,6′-trifluoro[1,1′-biphenyl]-2-yl)cyclopropane-1-carbonyl]pyrrolidin-3-yl}methanesulfonamide] | 104%
CC1(NS(C)(=O)=O)CN(C(=O)[C@@H]2C[C@@]2(F)c2ccccc2-c2c(F)cccc2F)CC1(F)F (stereo partly drawn) [Example 375, N-{(3R)-1-[(1S,2S)-2-(2′,6′-difluoro[1,1′-biphenyl]-2-yl)-2-fluorocyclopropane-1-carbonyl]-4,4-difluoro-3-methylpyrrolidin-3-yl}methanesulfonamide, or N-{(3S)-1-[(1S,2S)-2-(2′,6′-difluoro[1,1′-biphenyl]-2-yl)-2-fluorocyclopropane-1-carbonyl]-4,4-difluoro-3-methylpyrrolidin-3-yl}methanesulfonamide] | 92%
CCS(=O)(=O)NC(C)[C@@H]1CCN1C(=O)[C@@H]1C[C@@]1(F)c1ccccc1-c1c(F)cccc1F (stereo partly drawn) [Example 363, N-[(1R)-1-{(2S)-1-[(1S,2S)-2-(2′,6′-difluoro[1,1′-biphenyl]-2-yl)-2-fluorocyclopropane-1-carbonyl]azetidin-2-yl}ethyl]ethanesulfonamide, or N-[(1S)-1-{(2S)-1-[(1S,2S)-2-(2′,6′-difluoro[1,1′-biphenyl]-2-yl)-2-fluorocyclopropane-1-carbonyl]azetidin-2-yl}ethyl]ethanesulfonamide] | 98%
C[C@H]1C[C@H](NS(C)(=O)=O)CN1C(=O)C1(C)CC1c1ccccc1-c1c(F)cccc1F (stereo partly drawn) [Example 315, N-{(3S,5S)-1-[(1R,2S)-2-(2′,6′-difluoro[1,1′-biphenyl]-2-yl)-1-methylcyclopropane-1-carbonyl]-5-methylpyrrolidin-3-yl}methanesulfonamide, or N-{(3S,5S)-1-[(1S,2R)-2-(2′,6′-difluoro[1,1′-biphenyl]-2-yl)-1-methylcyclopropane-1-carbonyl]-5-methylpyrrolidin-3-yl}methanesulfonamide] | 91%
Cc1cccc(C2CC2C(=O)N2CCCC(NS(C)(=O)=O)C2)c1-c1ccccc1 (racemic) [Example 89, a mixture of rac-N-{(3R)-1-[(1R,2R)-2-(6-methyl[1,1′-biphenyl]-2-yl)cyclopropane-1-carbonyl]piperidin-3-yl}methanesulfonamide and rac-N-{(3S)-1-[(1R,2R)-2-(6-methyl[1,1′-biphenyl]-2-yl)cyclopropane-1-carbonyl]piperidin-3-yl}methanesulfonamide] | 64%
COCC1(NS(C)(=O)=O)CCN(C(=O)[C@@H]2C[C@@]2(F)c2ccccc2-c2c(F)cccc2F)C1 (stereo partly drawn) [Example 373, N-[(3R)-1-[(1S,2S)-2-(2′,6′-difluoro[1,1′-biphenyl]-2-yl)-2-fluorocyclopropane-1-carbonyl]-3-(methoxymethyl)pyrrolidin-3-yl]methanesulfonamide, or N-[(3S)-1-[(1S,2S)-2-(2′,6′-difluoro[1,1′-biphenyl]-2-yl)-2-fluorocyclopropane-1-carbonyl]-3-(methoxymethyl)pyrrolidin-3-yl]methanesulfonamide] | 95%
CC1CN(C(=O)C2CC2c2ccccc2-c2c(F)cccc2F)CCCC1NS(C)(=O)=O (racemic) [Example 217] | 83%

Reference: patent publication US20250250230A1, “HETEROCYCLIC COMPOUND” (TAKEDA PHARMACEUTICAL COMPANY LIMITED, priority 2022, published 2025)
